From patent publication US7906510B2, “Amide derivative and pharmaceutical composition containing the same” (Dainippon Sumito Pharma Co., Ltd., priority 2008, dated 2011)
Structures can show the parent of a compound that is named as a salt. Where two headings read alike, the source gives them in different places.

Key:
5-HT4 receptor = target: T1, 5-HT4 receptor (Cavia porcellus, UniProt O70528); assay: Serotonin 4 (5-HT4) receptor binding assay; set-up: species or system guinea pig
T1 construct: the mixture was suspended to give receptor membrane preparations; from tissue; host or cells: guinea pig (Slc-Hartley) brain striatum membranes
Procedure: 5-HT4 receptor binding assay and preparations of receptor membrane preparations were carried out according to a method of Grossman et al. [see British J. Pharmacol., (1993) 109, 618].
Slc-Hartley guinea pigs (body weight 300 to 400 g) were decapitated to remove brain rapidly, and striatum was isolated. To the obtained tissues were added fifteenfold of Hepes buffer (50 mM, pH7.4, 4° C.), and the mixture was homogenized by Teflon® homogenizer and centrifuged at 48,000×g (4° C.) for 15 minutes. To the resulting precipitate was added Hepes buffer (1 ml) to 30 mg by wet weight of tissues, and the mixture was suspended to give receptor membrane preparations.
0.1 nM [^3H]-GR113808 {chemical name: [1-[2-(methylsulfonylamino)ethyl]-4-piperidinyl]methyl 1-methylindole-3-carboxylate}, receptor membrane preparations, and Hepes buffer (50 mM, pH7.4, 4° C., 1 ml) containing test compounds or 30 μM serotonin were placed in an assay tube, and incubated at 37° C. for 30 minutes. On quenching the reaction, the mixture was rapidly filtered on whatman GF/B filter, which was presoaked in 0.1% polyethyleneimine for 1 hour, by using Brandel cell Harvester, and washed with ice-cooled 50 mM Tris-HCl (pH7.7, 4 ml) three times. To the filter after filtration was added ACS II scintillator, and then a radioactivity was determined by a liquid scintillation counter.
50% inhibition concentrations (IC50) were determined from inhibition rates of test compounds to specific bindings which were obtained by subtracting nonspecific bindings from total binding amounts of [^3H]-GR113808.

Male Slc-ddy mice = assay: Mouse defecation assay; assay type: in vivo; set-up: key: −: No Effect; +: Moderately Improved (p<0.05); ++: Significantly Improved (p<0.01); settings: 3 mg/kg orally; stool weight 30, 60 and 120 minutes after administration; Dunnett assay vs control
Procedure: Male Slc-ddy mice (body weight 25 to 30 g) were used and allowed to ingest food and water ad libitum until commencement of experiments.
A group of 25 mice was divided into 5 groups, which 5 mice each per group were respectively transferred to fasting cages to adjust to new environments for about 1 hour. Then, each mouse was orally administered 3 mg/kg suspension of a test compound in 0.5% tragacanth solution to measure each stool weight of each group 30, 60, and 120 minutes after oral administration.
Efficacies were evaluated by Dunnett assay between test compounds and control.

[1] = tested on: Male Slc-Hartley guinea pigs; assay: Electrocardiographic assay for guinea pig; settings: dose extending 5% of QTc; i.v. infusion for 15 minutes, anesthetized guinea pigs, ECG lead II
Procedure: Male Slc-Hartley guinea pigs were anesthetized to determine electrocardiogram (lead II) under artificial respiration. A drug solution was continuously and intravenously infused via cannula indwelled in cervical veins at a flow rate: 0.2 ml/kg/min for 15 minutes.

[2] = inhibition of specific binding of 0.1 nM [3H]-GR113808, guinea pig striatum membrane preparations, 37° C., 30 minutes, read-out: IC50

T1 sequence (O70528 whole entry): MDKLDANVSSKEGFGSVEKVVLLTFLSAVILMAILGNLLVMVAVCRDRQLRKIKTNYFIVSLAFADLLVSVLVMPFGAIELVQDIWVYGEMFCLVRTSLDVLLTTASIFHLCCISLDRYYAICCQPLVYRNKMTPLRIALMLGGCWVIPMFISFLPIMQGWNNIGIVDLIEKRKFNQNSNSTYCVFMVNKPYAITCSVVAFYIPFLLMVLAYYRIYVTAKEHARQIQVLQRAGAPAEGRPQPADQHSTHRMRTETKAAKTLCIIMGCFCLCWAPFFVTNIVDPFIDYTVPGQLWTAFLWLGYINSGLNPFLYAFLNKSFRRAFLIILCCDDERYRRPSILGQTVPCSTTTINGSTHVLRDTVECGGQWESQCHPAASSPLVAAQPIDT

Structure (SMILES) | IC50 (5-HT4 receptor; [2]) [nM] | Effect (Male Slc-ddy mice) | ED5% (mg/kg,i.v.) [1] [mg/kg] | IC50 (5-HT4 receptor) [nM]
COc1cc(N)c(Cl)cc1C(=O)NC[C@H]1CN(CC2CCN(C(=O)C(C)=O)CC2)CCO1 [Example 227] | 6.2 | ++ |  | 
COc1cc(N)c(Cl)cc1C(=O)NC[C@H]1CN(CC2CCN(S(=O)(=O)N(C)C)CC2)CCO1.O=C(O)/C=C/C(=O)O [Example 80] |  | + | >30 | 
COc1cc(N)c(Cl)cc1C(=O)NC[C@H]1CN(CC2CCN(C(=O)[C@H](C)OC)CC2)CCO1 [Example 225] | 20.2 | ++ | >30 | 
CCOc1cc(N)c(Cl)cc1C(=O)NC[C@H]1CN(CC2CCN(C(=O)c3ccc(Cl)cc3)CC2)CCO1 [Example 116] | 0.68 | + | >30 | 
COCC(=O)N1CCC(CN2CCO[C@@H](CNC(=O)c3cc(Cl)c(N)cc3OC)C2)CC1 [Example 132] |  | ++ | >30 | 
COc1cc(N)c(Cl)cc1C(=O)NCC1CN(CC2CCN(C(=O)n3ccnc3)CC2)CCO1 [Example 207, (S)-4-amino-5-chloro-N-[{4-[(1-imidazolecarbonyl-4-piperidinyl)methyl]-2-morpholinyl}methyl]-2-methoxybenzamide] |  | ++ | >30 | 
COC(=O)N1CCC(CN2CCO[C@@H](CNC(=O)c3cc(Cl)c(N)cc3OC)C2)CC1 [Example 92] |  | + | >30 | 
COc1cc(N)c(Cl)cc1C(=O)NC[C@H]1CN(CC2CCN(C(=O)Nc3ccc(Cl)c(Cl)c3)CC2)CCO1 [Example 58] | 1.97 | + |  | 
COc1cc(N)c(Cl)cc1C(=O)NC[C@H]1CN(CC2CCN(C(=O)Nc3cccc(C(F)(F)F)c3)CC2)CCO1 [Example 54] | 5.91 | + |  | 
CCOc1cc(N)c(Cl)cc1C(=O)NC[C@H]1CN(CC2CCN(C(=O)c3ccc(OC)cc3)CC2)CCO1 [Example 126] | 2.32 |  |  | 
COc1cc(N)c(Cl)cc1C(=O)NC[C@H]1CN(CC2CCN(C(=O)c3ccc(C(C)(C)C)cc3)CC2)CCO1 [Example 123] | 2.11 |  |  | 
COc1cc(N)c(Cl)cc1C(=O)NC[C@H]1CN(CC2CCN(C(=O)c3ccccc3C)CC2)CCO1 [Example 118] | 1.7 |  |  | 
COc1ccccc1OC(=O)N1CCC(CN2CCO[C@@H](CNC(=O)c3cc(Cl)c(N)cc3OC)C2)CC1 [Example 107] |  |  |  | 3.43
CCOc1cc(N)c(Cl)cc1C(=O)NC[C@H]1CN(CC2CCN(C(=O)NC)CC2)CCO1 [Example 47] | 8.04 |  |  | 
COC(=O)N1CCC(CN2CCOC(CNC(=O)c3cc(Cl)c(N)c4c3OCC4)C2)CC1 (centres unmarked) [Example 138] | 2.8 | ++ |  | 
COc1cc(N)c(Cl)cc1C(=O)NC[C@H]1CN(CC2CCN(C(=O)N(C(C)C)C(C)C)CC2)CCO1.Cl [Example 88] |  | ++ |  | 
COc1cc(N)c(Cl)cc1C(=O)N[C@H]1CCN(CCCOc2ccc(F)cc2)C[C@H]1OC (relative stereo) [Cisapride, cis-4-amino-5-chloro-N-[1-[3-(4-fluorophenoxy)propyl]-3-methoxy-4-piperidinyl]-2-methoxybenzamide, reference compound] |  | − | 0.3 | 
CCOc1cc(N)c(Cl)cc1C(=O)NC[C@H]1CN(CC2CCN(C(=O)c3ccccc3OC(C)=O)CC2)CCO1 [Example 167] | 6.36 |  |  | 
COc1cc(N)c(Cl)cc1C(=O)NC[C@H]1CN(CC2CCN(C(=O)OCC(C)C)CC2)CCO1 [Example 102] | 6.79 |  |  | 
C=CCOC(=O)N1CCC(CN2CCO[C@@H](CNC(=O)c3cc(Cl)c(N)cc3OC)C2)CC1 [Example 100] |  | ++ | >30 | 

Further lines, with some results ahead:

IC50 (5-HT4 receptor; [2]) [nM] | Structure (SMILES) | Effect (Male Slc-ddy mice) | ED5% (mg/kg,i.v.) [1] [mg/kg] | IC50 (5-HT4 receptor) [nM]
2.05 | COc1cc(N)c(Cl)cc1C(=O)NC[C@H]1CN(CC2CCN(C(=O)c3cccc(C)c3)CC2)CCO1 [Example 119] | + | >30 | 
0.87 | CCc1ccc(C(=O)N2CCC(CN3CCO[C@@H](CNC(=O)c4cc(Cl)c(N)cc4OC)C3)CC2)cc1 [Example 122] | + | >30 | 
25.9 | COc1cc(N)c(Cl)cc1C(=O)NC[C@H]1CN(CC2CCN(C(=O)CO)CC2)CCO1 [Example 198, 4-amino-5-chloro-N-[{4-[(1-hydroxyacetyl-4-piperidinyl)methyl]-2-morpholinyl}methyl]-2-methoxybenzamide hydrochloride] | ++ | >30 | 
13.1 | COc1cc(N)c(Cl)cc1C(=O)NC[C@H]1CN(CC2CCN(C(=O)c3cocn3)CC2)CCO1 [Example 228] | ++ | >30 | 
6.04 | CN(C)C(=O)N1CCC(CN2CCOC(CNC(=O)c3cc(Cl)c(N)c4c3OCC4)C2)CC1 (centres unmarked) [Example 135, 4-amino-5-chloro-N-[{4-[(1-dimethylcarbamoyl-4-piperidinyl)methyl]-2-morpholinyl}methyl]-2,3-dihydrobenzo[b]furan-7-carboxamide 1.5 fumarate] | ++ | >30 | 
17.2 | COc1cc(N)c(Cl)cc1C(=O)NC[C@H]1CN(CC2CCN(C(=O)CNC(=O)c3ccccc3)CC2)CCO1 [Example 222] | ++ | >30 | 
7.33 | COc1cc(N)c(Cl)cc1C(=O)NC[C@H]1CN(CC2CCN(C(=O)N3CCCC3)CC2)CCO1 [Example 89] | + |  | 
18.6 | COc1cc(N)c(Cl)cc1C(=O)NC[C@H]1CN(CC2CCN(C(=O)CC#N)CC2)CCO1 [Example 223] | ++ |  | 
9.18 | CC(=O)N1CCC(CN2CCO[C@@H](CNC(=O)c3cc(Cl)c(N)c4c3OCC4)C2)CC1 [Example 231] | ++ |  | 
2.16 | COc1cc(N)c(Cl)cc1C(=O)NC[C@H]1CN(CC2CCN(C(=O)c3cccc(N(C)C)c3)CC2)CCO1 [Example 171] |  |  | 
8.6 | COc1cc(N)c(Cl)cc1C(=O)NC[C@H]1CN(CC2CCN(C(=O)NCCc3ccccc3)CC2)CCO1 [Example 63] |  |  | 
10.6 | CCOc1cc(N)c(Cl)cc1C(=O)NC[C@H]1CN(CC2CCN(C(=O)n3ccnc3)CC2)CCO1 [Example 206, (S)-4-amino-5-chloro-2-ethoxy-N-[{4-[(1-imidazolecarbonyl-4-piperidinyl)-methyl]-2-morpholinyl}methyl]benzamide] |  |  | 
6.96 | COc1cc(N)c(Cl)cc1C(=O)NC[C@H]1CN(CC2CCN(C(=O)c3ccco3)CC2)CCO1 [Example 131] |  |  | 
0.64 | COc1cc(N)c(Cl)cc1C(=O)NC[C@H]1CN(CC2CCN(C(=O)c3ccc(C#N)cc3)CC2)CCO1 [Example 230] | ++ |  | 
12.1 | Nc1c(Cl)cc(C(=O)NC[C@H]2CN(CC3CCN(C(=O)CO)CC3)CCO2)c2c1CCO2 [Example 233, (S)-4-amino-5-chloro-N-[{4-[(1-hydroxyacetyl-4-piperidinyl)methyl]-2-morpholinyl}methyl]-2,3-dihydrobenzo[b]furan-7-carboxamide] | ++ |  | 
1.94 | COc1cc(N)c(Cl)cc1C(=O)NC[C@H]1CN(CC2CCN(C(=O)Nc3ccccc3)CC2)CCO1 [Example 52] | − |  | 
2.48 | COc1cc(N)c(Cl)cc1C(=O)NC[C@H]1CN(CC2CCN(C(=O)c3ccc(Cl)cc3)CC2)CCO1 [Example 115] | + |  | 
2.51 | COc1cc(N)c(Cl)cc1C(=O)NC[C@H]1CN(CC2CCN(C(=O)NCc3ccc(Cl)cc3Cl)CC2)CCO1 [Example 62] |  |  | 
7.34 | Nc1c(Cl)cc(C(=O)NC[C@H]2CN(CC3CCN(C(=O)C4CCOC4)CC3)CCO2)c2c1CCO2 (some centres unmarked) [Example 232] | ++ |  | 
1.82 | COc1cc(N)c(Cl)cc1C(=O)NC[C@H]1CN(CC2CCN(C(=O)Nc3cc(C)cc(C)c3)CC2)CCO1 [Example 57] |  |  | 
2.23 | COc1cc(N)c(Cl)cc1C(=O)NC[C@H]1CN(CC2CCN(C(=O)c3cccc(F)c3)CC2)CCO1 [Example 113] |  |  | 
3.01 | CCOc1cc(N)c(Cl)cc1C(=O)NCC1CN(CC2CCN(C(=O)c3ccccc3)CC2)CCO1 (centres unmarked) [Example 112] |  |  | 
9.62 | CCCOC(=O)N1CCC(CN2CCO[C@@H](CNC(=O)c3cc(Cl)c(N)cc3OC)C2)CC1 [Example 98] |  |  | 
